The source of these data is patent US20220356186A1, “PERK INHIBITING PYRROLOPYRIMIDINE COMPOUNDS” (HiberCell, Inc., priority 2019, published 2022).

Like-named read-outs stand apart in the source and are kept apart here.

Assay [1] addresses T1, EIF2AK3 (PERK) catalytic domain (amino acids 536-1116) (Homo sapiens, UniProt Q9NZJ5).
T1 construct: EIF2AK3 (PERK) catalytic domain (amino acids 536-1116)
T1 sequence (Q9NZJ5 536-1116): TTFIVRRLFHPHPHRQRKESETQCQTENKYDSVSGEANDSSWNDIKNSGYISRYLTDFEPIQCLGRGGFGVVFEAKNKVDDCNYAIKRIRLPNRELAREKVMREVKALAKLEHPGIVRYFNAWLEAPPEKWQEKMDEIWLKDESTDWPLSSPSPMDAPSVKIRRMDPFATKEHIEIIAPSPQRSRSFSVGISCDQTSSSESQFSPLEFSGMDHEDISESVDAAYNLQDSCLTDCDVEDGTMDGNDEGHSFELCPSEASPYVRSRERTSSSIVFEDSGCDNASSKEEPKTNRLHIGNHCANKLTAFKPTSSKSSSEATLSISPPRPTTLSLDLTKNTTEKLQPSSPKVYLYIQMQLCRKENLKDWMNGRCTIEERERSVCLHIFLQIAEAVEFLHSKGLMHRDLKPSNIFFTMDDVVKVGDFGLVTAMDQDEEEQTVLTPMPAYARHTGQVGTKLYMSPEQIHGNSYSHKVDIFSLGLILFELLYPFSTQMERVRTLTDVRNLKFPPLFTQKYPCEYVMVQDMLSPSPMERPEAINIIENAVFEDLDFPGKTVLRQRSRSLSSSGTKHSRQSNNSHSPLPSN
Put plainly: PERK in vitro activity assay (isolated), TR-FRET kinase assay. The assay is classed as biochemical. The note with it: isolated PERK enzyme, 1.5 μM ATP; read-out: Biochemical IC50. The procedure, abridged:
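TR-FRET read-out: after EDTA stop (10 mM final), Tb-labelled phospho-eIF2a antibody (2 nM) for 90 min; IC50 via 4-parameter nonlinear fit. Reaction: PERK aa 536-1116, GFP-eIF2a 100-200 nM, HEPES pH 7.5 with MgCl2/EGTA/Brij-35, 45 min, room temperature, started by enzyme.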
Background: TR-FRET usually uses a lanthanide donor and a delayed reading to cut background.

The test system of assay [2] is GFP-eIF2α in HEK293 cells. Put plainly: PERK cellular assay, TR-FRET in HEK293-EGFP-eIF2a cells after tunicamycin-induced ER stress. The note with it: HEK293-EGFP-eIF2a cells, tunicamycin 2 hours, read-out: Cellular eIF2α IC50. The assay is classed as cell-based. The procedure, abridged:
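Compounds were added 30 min before a 2 h tunicamycin ([…]) challenge of lentivirally made GFP-eIF2α HEK293 cells, 5000/well; lysate TR-FRET ratio was the read-out.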

On to `Cc1nc(N)c2c(-c3cnc(NC(=O)C(O)c4cccc(C(F)(F)F)c4)cc3C)cn(C)c2n1` (stereo not shown) [Example 132, N-(5-(4-amino-2,7-dimethyl-7H-pyrrolo[2,3-d]pyrimidin-5-yl)-4-methylpyriidn-2-yl)-2-hydroxy-2-(3-(trifluoromethyl)phenyl)acetamide], for which the 50% inhibitory concentration (IC50) (as a rule, the concentration needed to halve the response being measured) in assay [1] lay in the range of 1 to 25 nM; in assay [2], 51 to 100 nM.

In the case of `Cc1nc(N)c2c(-c3cnc(NC(=O)C(O)c4cccc(F)c4)cc3C)cn(C)c2n1` (stereo not shown) [Example 133, N-(5-(4-amino-2,7-dimethyl-7H-pyrrolo[2,3-d]pyrimidin-5-yl)-4-methylpyridin-2-yl)-2-(3-fluorophenyl)-2-hydroxyacetamide], the IC50 in assay [1] lay in the range of 251 to 500 nM; in assay [2] it was 4000 to 5000 nM.

In the case of `Cc1nc(N)c2c(-c3cnc(NC(=O)C(O)c4cccc(F)c4)cc3C)cn(C)c2n1` (stereo not shown) [Example 134, N-(5-(4-amino-2,7-dimethyl-7H-pyrrolo[2,3-d]pyrimidin-5-yl)-4-methylpyridin-2-yl)-2-(3-fluorophenyl)-2-hydroxyacetamide], the results for the IC50 in assay [1] and in assay [2] were 1 to 25 nM and 101 to 250 nM, respectively.

Consider `Cc1cccc(CC(=O)Nc2ccc(-c3cn(C)c4nc(C)nc(N)c34)c(C)c2)n1` [Example 135, N-(4-(4-amino-2,7-dimethyl-7H-pyrrolo[2,3-d]pyrimidin-5-yl)-3-methylphenyl)-2-(6-methylpyridin-2-yl)acetamide], for which the 50% inhibitory concentration (IC50) in assay [1] lay in the range of 26 to 50 nM; in assay [2] (Homo sapiens, HEK293, 2 h), 251 to 500 nM.

Turning to `Cc1cccc(CC(=O)Nc2ccc(-c3cn(C)c4ncnc(N)c34)c(C)c2)n1` [Example 136, N-(4-(4-amino-7-methyl-7H-pyrrolo[2,3-d]pyrimidin-5-yl)-3-methylphenyl)-2-(6-methylpyridin-2-yl)acetamide], the IC50 in assay [1] is 1 to 25 nM; in assay [2] (Homo sapiens, HEK293, 2 h), 1 to 25 nM.

In the case of `Cc1cc(NC(=O)Cc2ccccc2)ccc1-c1cn(C)c2ncnc(N)c12` [Example 137, N-(4-(4-amino-7-methyl-7H-pyrrolo[2,3-d]pyrimidin-5-yl)-3-methylphenyl)-2-phenylacetamide], the IC50 in assay [1] fell in the range of 1 to 25 nM; in assay [2] (Homo sapiens, HEK293, 2 h) it was 26 to 50 nM.

In the case of `COc1ccccc1CC(=O)Nc1ccc(-c2cn(C)c3ncnc(N)c23)c(C)c1` [Example 138, N-(4-(4-amino-7-methyl-7H-pyrrolo[2,3-d]pyrimidin-5-yl)-3-methylphenyl)-2-(2-methoxyphenyl)acetamide], the IC50 in assay [1] lay in the range of 1 to 25 nM; in assay [2] (Homo sapiens, HEK293, 2 h), 101 to 250 nM.

As to `COc1cccc(CC(=O)Nc2ccc(-c3cn(C)c4ncnc(N)c34)c(C)c2)c1` [Example 139, N-(4-(4-amino-7-methyl-7H-pyrrolo[2,3-d]pyrimidin-5-yl)-3-methylphenyl)-2-(3-methoxyphenyl)acetamide], the IC50 in assay [1] is 26 to 50 nM; in assay [2] (Homo sapiens, HEK293, 2 h), 251 to 500 nM.

Regarding `Cc1cc(NC(=O)Cc2ccc(F)cc2)ccc1-c1cn(C)c2ncnc(N)c12` [Example 140, N-(4-(4-amino-7-methyl-7H-pyrrolo[2,3-d]pyrimidin-5-yl)-3-methylphenyl)-2-(4-fluorophenyl)acetamide], the IC50 fell in the range of 1 to 25 nM in assay [1] and 26 to 50 nM in assay [2] (Homo sapiens, HEK293, 2 h).

Consider `COc1ccc(CC(=O)Nc2ccc(-c3cn(C)c4ncnc(N)c34)c(C)c2)cc1` [Example 141, N-(4-(4-amino-7-methyl-7H-pyrrolo[2,3-d]pyrimidin-5-yl)-3-methylphenyl)-2-(4-methoxyphenyl)acetamide], for which the IC50 in assay [1] lay within 51 to 100 nM; in assay [2] (Homo sapiens, HEK293, 2 h), 251 to 500 nM.

Consider `Cc1ccccc1CC(=O)Nc1ccc(-c2cn(C)c3ncnc(N)c23)c(C)c1` [Example 142, N-(4-(4-amino-7-methyl-7H-pyrrolo[2,3-d]pyrimidin-5-yl)-3-methylphenyl)-2-(o-tolyl)acetamide], for which the IC50 in assay [1] fell in the range of 1 to 25 nM; in assay [2] (Homo sapiens, HEK293, 2 h), 26 to 50 nM.

On to `Cc1cccc(CC(=O)Nc2ccc(-c3cn(C)c4ncnc(N)c34)c(C)c2)c1` [Example 143, N-(4-(4-amino-7-methyl-7H-pyrrolo[2,3-d]pyrimidin-5-yl)-3-methylphenyl)-2-(m-tolyl)acetamide], for which the IC50 lay in the range of 1 to 25 nM in assay [1] and 26 to 50 nM in assay [2] (Homo sapiens, HEK293, 2 h).

As for `Cc1ccc(CC(=O)Nc2ccc(-c3cn(C)c4ncnc(N)c34)c(C)c2)cc1` [Example 144, N-(4-(4-amino-7-methyl-7H-pyrrolo[2,3-d]pyrimidin-5-yl)-3-methylphenyl)-2-(p-tolyl)acetamide], the IC50 lay in the range of 1 to 25 nM in assay [1] and 101 to 250 nM in assay [2] (Homo sapiens, HEK293, 2 h).

In the case of `CCc1ccccc1CC(=O)Nc1ccc(-c2cn(C)c3ncnc(N)c23)c(C)c1` [Example 145, N-(4-(4-amino-7-methyl-7H-pyrrolo[2,3-d]pyrimidin-5-yl)-3-methylphenyl)-2-(2-ethylphenyl)acetamide], the half-maximal inhibitory concentration (IC50) fell in the range of 1 to 25 nM in assay [1] and 26 to 50 nM in assay [2] (Homo sapiens, HEK293, 2 h).

Regarding `CCc1cccc(CC(=O)Nc2ccc(-c3cn(C)c4ncnc(N)c34)c(C)c2)c1` [Example 146, N-(4-(4-amino-7-methyl-7H-pyrrolo[2,3-d]pyrimidin-5-yl)-3-methylphenyl)-2-(3-ethylphenyl)acetamide], the half-inhibitory concentration (IC50) in assay [1] lay in the range of 1 to 25 nM; in assay [2] (Homo sapiens, HEK293, 2 h), 1 to 25 nM.

In the case of `CCc1ccc(CC(=O)Nc2ccc(-c3cn(C)c4ncnc(N)c34)c(C)c2)cc1` [Example 147, N-(4-(4-amino-7-methyl-7H-pyrrolo[2,3-d]pyrimidin-5-yl)-3-methylphenyl)-2-(4-ethylphenyl)acetamide], the IC50 in assay [1] was in the range of 1 to 25 nM; in assay [2] (Homo sapiens, HEK293, 2 h), 51 to 100 nM.

Consider `Cc1cc(NC(=O)Cc2cccc(C(C)C)c2)ccc1-c1cn(C)c2ncnc(N)c12` [Example 148, N-(4-(4-amino-7-methyl-7H-pyrrolo[2,3-d]pyrimidin-5-yl)-3-methylphenyl)-2-(3-isopropylphenyl)acetamide], for which the IC50 in assay [1] lay within 1 to 25 nM; in assay [2] (Homo sapiens, HEK293, 2 h), 101 to 250 nM.

As to `Cc1cc(NC(=O)Cc2ccccc2Cl)ccc1-c1cn(C)c2ncnc(N)c12` [Example 149, N-(4-(4-amino-7-methyl-7H-pyrrolo[2,3-d]pyrimidin-5-yl)-3-methylphenyl)-2-(2-chlorophenyl)acetamide], the half-inhibitory concentration (IC50) in assay [1] fell in the range of 1 to 25 nM; in assay [2] (Homo sapiens, HEK293, 2 h), 26 to 50 nM.

As for `Cc1cc(NC(=O)Cc2cccc(Cl)c2)ccc1-c1cn(C)c2ncnc(N)c12` [Example 150, N-(4-(4-amino-7-methyl-7H-pyrrolo[2,3-d]pyrimidin-5-yl)-3-methylphenyl)-2-(3-chlorophenyl)acetamide], the IC50 lay within 1 to 25 nM in assay [1] and 26 to 50 nM in assay [2] (Homo sapiens, HEK293, 2 h).

For the molecule `Cc1cc(NC(=O)Cc2ccc(Cl)cc2)ccc1-c1cn(C)c2ncnc(N)c12` [Example 151, N-(4-(4-amino-7-methyl-7H-pyrrolo[2,3-d]pyrimidin-5-yl)-3-methylphenyl)-2-(4-chlorophenyl)acetamide], the half-inhibitory concentration (IC50) in assay [1] is 1 to 25 nM; in assay [2] (Homo sapiens, HEK293, 2 h) it was 101 to 250 nM.

For `Cc1cc(NC(=O)Cc2ccc3ccccc3c2)ccc1-c1cn(C)c2ncnc(N)c12` [Example 152, N-(4-(4-amino-7-methyl-7H-pyrrolo[2,3-d]pyrimidin-5-yl)-3-methylphenyl)-2-(naphthalen-2-yl)acetamide], the concentration for half-maximal inhibition (IC50) in assay [1] was 1 to 25 nM; in assay [2] (Homo sapiens, HEK293, 2 h), 51 to 100 nM.

`Cc1cc(NC(=O)Cc2cccc3ccccc23)ccc1-c1cn(C)c2ncnc(N)c12` [Example 153, N-(4-(4-amino-7-methyl-7H-pyrrolo[2,3-d]pyrimidin-5-yl)-3-methylphenyl)-2-(naphthalen-1-yl)acetamide]: the IC50 in assay [1] was 1 to 25 nM; in assay [2] (Homo sapiens, HEK293, 2 h), 26 to 50 nM.

For `Cc1cc(NC(=O)Cc2cccc3ncccc23)ccc1-c1cn(C)c2ncnc(N)c12` [Example 154, N-(4-(4-amino-7-methyl-7H-pyrrolo[2,3-d]pyrimidin-5-yl)-3-methylphenyl)-2-(quinolin-5-yl)acetamide], the IC50 in assay [1] lay in the range of 51 to 100 nM; in assay [2] (Homo sapiens, HEK293, 2 h), 501 to 1000 nM.

In the case of `Cc1cc(NC(=O)Cc2cncc3ccccc23)ccc1-c1cn(C)c2ncnc(N)c12` [Example 155, N-(4-(4-amino-7-methyl-7H-pyrrolo[2,3-d]pyrimidin-5-yl)-3-methylphenyl)-2-(isoquinolin-4-yl)acetamide], the IC50 lay in the range of 26 to 50 nM in assay [1] and 101 to 250 nM in assay [2] (Homo sapiens, HEK293, 2 h).

With `Cc1cc(NC(=O)Cc2cccc3cnccc23)ccc1-c1cn(C)c2ncnc(N)c12` [Example 156, N-(4-(4-amino-7-methyl-7H-pyrrolo[2,3-d]pyrimidin-5-yl)-3-methylphenyl)-2-(isoquinolin-5-yl)acetamide], the IC50 in assay [1] fell in the range of 51 to 100 nM; in assay [2] (Homo sapiens, HEK293, 2 h) it was 251 to 500 nM.

Turning to `Cc1cc(NC(=O)Cc2ccccc2C(F)(F)F)ccc1-c1cn(C)c2ncnc(N)c12` [Example 157, N-(4-(4-amino-7-methyl-7H-pyrrolo[2,3-d]pyrimidin-5-yl)-3-methylphenyl)-2-(2-(trifluoromethyl)phenyl)acetamide], the IC50 lay in the range of 1 to 25 nM in assay [1] and 51 to 100 nM in assay [2] (Homo sapiens, HEK293, 2 h).
